The nature of data set [1]: logP determination by HPLC on a reversed-phase column (EEC Directive 79/831 Annex V.A8). It is filed as physicochemical. Conditions: for chromatographic logP: read-out: logP (pH2). How it is done:
The logP values given in the Preparation Examples and the tables above are determined in accordance with EEC Directive 79/831 Annex V.A8 by HPLC (High Performance Liquid Chromatography) on a reversed-phase column (C 18). Temperature: 43° C.
The determination is carried out in the acidic range at pH 2.3 using the mobile phases 0.1% aqueous phosphoric acid and acetonitrile; linear gradient from 10% acetonitrile to 90% acetonitrile.
Calibration is carried out using unbranched alkan-2-ones (having 3 to 16 carbon atoms) with known logP values (determination of the logP values by the retention times using linear interpolation between two successive alkanones).

In data set [2] the test system is caterpillars of the army worm (Spodoptera frugiperda). The experiment in a line: Spodoptera frugiperda test. Format: in vivo. Conditions: active compound concentration 500 ppm, after 7 days, dipped cabbage leaves. How it is done: (§1) Spodoptera Frugiperda Test Solvent: 7 parts by weight of dimethylformamide Emulsifier: 2 parts by weight of alkylaryl polyglycol ether To produce a suitable preparation of active compound, 1 part by weight of active compound is mixed with the stated amounts of solvent and emulsifier, and the concentrate is diluted with emulsifier-containing water to the desired concentration. Cabbage leaves (Brassica oleracea) are treated by being dipped into the preparation of active compound of the desired concentration and are populated with caterpillars of the army worm (Spodoptera frugiperda) while the leaves are still moist. After the desired period of time, the kill in % is determined. 100% means that all caterpillars have been killed; 0% means that none of the caterpillars have been killed.

The test system of data set [3] is larvae of the mustard beetle (Phaedon cochleariae). Description: Phaedon larvae test. Format: in vivo. Conditions: active compound concentration 500 ppm, after 7 days, dipped cabbage leaves. The procedure: as §1, with “Phaedon Larvae Test” for “Spodoptera Frugiperda Test”, “with larvae” for “with caterpillars”, “the mustard beetle (Phaedon cochleariae)” for “the army worm (Spodoptera frugiperda)”, “all beetle larvae” for “all caterpillars”, “the beetle larvae” for “the caterpillars”

Setting [4] is: HPLC, reversed-phase C 18, 43° C., acidic range pH 2.3, 0.1% aqueous phosphoric acid/acetonitrile.
Where [5] appears, read: reversed-phase C18 HPLC column, HPLC, reversed-phase C 18, 43° C., acidic range pH 2.3, 0.1% aqueous phosphoric acid/acetonitrile.

Like-named read-outs stand apart in the source and are kept apart here.

Take “4-(5-tert-butyltetrazol-2-yl)nitrobenzene”: the “logP (pH2)” value in data set [1] (setting [4]) worked out at 2.20.

Take `N#Cc1cnn(CC(=O)c2ccc(Cl)cc2)c1` [2-(4-cyanopyrazol-1-yl)-4′-chloroacetophenone]: the chromatographic logP in data set [1] (setting [4]) worked out at 2.2.

Regarding `N#Cc1cnn(C2CNN=C2c2ccc(Cl)cc2)c1` (stereo not drawn) [3-(4-chlorophenyl)-4-(4-cyanopyrazol-1-yl)-4,5-dihydro-1H-pyrazole], the chromatographic logP in data set [1] (setting [5]) was found to be 2.11.

With `CC(C)(C)n1nnc(-c2ccc(N)cc2)n1` [4-(2-tert-butyltetrazol-5-yl)aniline], the chromatographic logP in data set [1] (setting [5]) is 1.69.

For `CC(C)(C)c1noc(-c2ccc(N)cc2)n1` [4-(3-tert-butyl[1,2,4]oxadiazol-5-yl)aniline], the chromatographic logP in data set [1] (setting [5]) was 2.54.

On to `CC(C)(C)c1nc(-c2ccc(N)cc2)no1` [4-(5-tert-butyl[1,2,4]oxadiazol-3-yl)aniline], for which the chromatographic logP in data set [1] (setting [5]) is 2.31.

`CC(C)(C)c1nnn(-c2ccc(N)cc2)n1` [4-(5-tert-butyltetrazol-2-yl)aniline]: in data set [1] (setting [5]), the chromatographic logP came to 2.27.

Take `N#Cc1cnn(C2CN(C(=O)Nc3ccc(-c4ccccc4)cc3)N=C2c2ccc(Cl)cc2)c1` (stereo not drawn) [Compound 1, N-(4-phenyl)-3-(4-chlorophenyl)-4-(4-cyanopyrazol-1-yl)-4,5-dihydro-1-pyrazolecarboxanilide]: the chromatographic logP in data set [1] (setting [5]) worked out at 4.11. The compound further had a kill in % in data set [2] of 100%.

On to `CC(C)(C)c1nc(-c2ccc(NC(=O)N3CC(n4cc(C#N)cn4)C(c4ccc(Cl)cc4)=N3)cc2)no1` (stereo not drawn) [Compound 2, N-[4-(5-tert-butyl[1.2.4]oxadiazol-3-yl)-phenyl]-3-(4-chlorophenyl)-4-(4-cyanopyrazol-1-yl)-4,5-dihydro-1-pyrazolecarboxamide], for which the “logP (pH2)” value in data set [1] (pH 2.3) was found to be 4.33. The kill in % in data set [3] and in data set [2] was 100% in each case.

As to `CC(C)(C)c1noc(-c2ccc(NC(=O)N3CC(n4cc(C#N)cn4)C(c4ccc(Cl)cc4)=N3)cc2)n1` (stereo not drawn) [Compound 3, N-[4-(3-tert-butyl[1,2,4]oxadiazol-5-yl)-phenyl]-3-(4-chlorophenyl)-4-(4-cyanopyrazol-1-yl)-4,5-dihydro-1-pyrazolecarbox-amide], the “logP (pH2)” value in data set [1] (pH 2.3) came out at 4.38. In addition, the kill in % in data set [2] is recorded as 100%.

In the case of `CC(C)(C)n1nnc(-c2ccc(NC(=O)N3CC(n4cc(C#N)cn4)C(c4ccc(Cl)cc4)=N3)cc2)n1` (stereo not drawn) [Compound 4, N-[4-(2-tert-butyltetrazol-5-yl)phenyl]-3-(4-chlorophenyl)-4-(4-cyanopyrazol-1-yl)-4,5-dihydro-1-pyrazolecarboxamide], the chromatographic logP in data set [1] (setting [5]) is 3.91. Moreover, the kill in % in data set [3] and in data set [2] was 100% each time.

As to `CC(C)(C)c1nnn(-c2ccc(NC(=O)N3CC(n4cc(C#N)cn4)C(c4ccc(Cl)cc4)=N3)cc2)n1` (stereo not drawn) [Compound 5, N-[4-(5-tert-butyltetrazol-2-yl)phenyl]-3-(4-chlorophenyl)-4-(4-cyanopyrazol-1-yl)-4,5-dihydro-1-pyrazolecarboxamide], the chromatographic logP in data set [1] (setting [5]) came out at 4.27.
